In brackets after ≈: the same amount, converted by molar mass. Peptide text beside a SMILES is read from it.
How the values were obtained:
[1] = test system: C. albicans clinical isolate; assay: Antibiofilm assay (planktonic growth and biofilm formation, crystal violet); format: cell-based, Candida albicans
Description: (§1) Overnight cultures of microorganisms [E. coli 0157, methicillin-resistant S. aureus (MRSA), K. pneumoniae 1825971, or C. albicans clinical isolate obtained from a blood culture maintained at LACEN (Laboratório Central de Saúde do Distrito Federal, a Brazilian reference laboratory for clinical isolates in Brasília, Brazil)] grown in LB broth (BD Difco) were diluted 1 in 100 in LB and Todd-Hewitt broth (BD Difco) or BM2 minimal medium [62 mM potassium phosphate buffer, pH 7.0, 7 mM (NH4)2SO4, 2 mM MgSO4, 10 μM FeSO4, 0.5% glucose], and 100 μL per well was added into 96-well round-bottom microplates. Absorbance at 600 nm was used to assess the planktonic cell growth. Non-adherent planktonic cells were removed from microtiter wells and washed twice with deionized water. Adherent cells were stained with 0.1% crystal violet for 20 min. The microplate wells were washed twice with deionized water, air dried, and solubilized with 110 μL of 70% ethanol. […] Biofilm formation was assessed by measuring the absorbance at 600 nm using a microplate reader (Bio-Tek Instruments, Inc., USA). The microdilution method for cationic peptides was used to determine the MIC for planktonic cells. Three biological replicates were performed for each experiment involving eight technical replicates.

[2] = test system: Candida parapsilosis ATCC 22019; format: cell-based; details: ATCC 22019, 18 h
Description: (§2) Lysogeny Broth (LB) was used for cultures of Acinetobacter baumannii ATCC 19606, Enterococcus faecalis ATCC 29212, Escherichia coli ATCC 25922, Klebsiella pneumoniae ATCC 13883, Pseudomonas aeruginosa ATCC 27853, and S. aureus ATCC 25923. Brain Heart Infusion (BHI) broth was used for cultures of Listeria ivanovii Li 4pVS2 and Streptococcus pyogenes ATCC 19615. Yeast peptone dextrose (YPD) medium was used for Candida species (C. albicans ATCC 90028 and C. parapsilosis ATCC 22019). MH (Mueller Hinton) broth was used for suspend centrifuged culture of bacteria and yeasts in logarithmic phase to an A630 of 0.01 (~10^6 cfu mL^−1), except for S. pyogenes, L. ivanovii, and E. faecalis that were suspended in their respective growth medium. […] A microplate reader (UVM 340, Asys Hitech) was used to monitor the antimicrobial susceptibility by measuring the change in A630. […] Each experiment was performed in triplicate with positive (0.7% formaldehyde) and negative (without peptide) inhibition controls.

[3] = test system: P. aeruginosa strain PAO1; assay: Scarification skin infection mouse model; format: in vivo, female CD-1 mice
Description: P. aeruginosa strain PAO1 was grown to an optical density at 600 nm (OD600) of 1 in tryptic soy broth medium. Subsequently cells were washed twice with sterile PBS, and resuspended to a final concentration of 5 × 10^7 CFU in 50 μL. To generate skin infection, female CD-1 mice (6 weeks old) were anesthetized with isoflurane and had their backs shaved. A superficial linear skin abrasion was made with a needle in order to damage the stratum corneum and upper layer of the epidermis. Five minutes after wounding, an aliquot of 50 μL containing 5 × 10^7 CFU of bacteria in PBS was inoculated over each defined area containing the scratch with a pipette tip. One day after the infection, peptides were administered to the infected area. Animals were euthanized and the area of scarified skin was excised 2 and 4 days post-infection, homogenized using a bead beater for 20 min (25 Hz), and serially diluted for CFU quantification. Two independent experiments were performed with four mice per group in each case. Statistical significance was assessed using a two-way ANOVA. Animals were maintained in accordance with the Guide for the Care and Use of Laboratory Animals in an AAALAC-accredited facility. All procedures were approved by the MIT’s Institutional Animal Care and Use Committee (IACUC), protocol number 1016-064-19.

[4] = test system: Acinetobacter baumannii ATCC 19606; assay: Antimicrobial activity, MIC by twofold serial dilution; format: cell-based; details: purified peptide; MH broth, 18 h, 37 °C, A630; average of three independent experiments in triplicate
Description: as §2

[5] = test system: Staphylococcus aureus ATCC 25923; format: cell-based; details: ATCC 25923, 18 h
Description: as §2

E. coli ATCC 25922 = assay: SYTOX green uptake assay (membrane permeabilization); format: cell-based, Escherichia coli; details: 12.5 µM (twofold above the MIC), 1 h, 37 °C, PBS
Description: SG is impermeant to live cells and when the cell membrane is damaged, this dye penetrates into the cell and binds to intracellular DNA, due to its high-affinity to nucleic acids, leading to an increase in fluorescence. Exponentially growing bacteria (6 × 10^5 cfu mL^−1) were resuspended in PBS after centrifugation (1000 × g, 10 min, 4 °C) and washing steps. About 792 μL of the bacterial suspension was pre-incubated with 8 μL of 100 μM SG during 30 min at 37 °C in the dark. […] Results correspond to a representative experiment with negative (PBS) and positive (melittin) controls. Three independent experiments were performed.

[6] = test system: P. aeruginosa H1001 (fliC::luxCDABE); format: cell-based, Pseudomonas aeruginosa; details: SPOT-synthesized unpurified crude peptide (~70% purity); bioluminescent engineered P. aeruginosa; BM2 medium; 4 h, 37 °C; reduction of luminescence; 200 to 3 μg mL−1 tested
Description: A peptide array composed of 20 peptides (15 guavanins, 4 Pg-AMP1 fragments, and magainin 2) was designed and synthesized by Kinexus Bioinformatics Corporation (Vancouver, BC). Peptides were produced in a standard mass of 80 μg by using cellulose support in SPOT technology. The crude synthetic peptides were obtained from cellulose membrane discs that had already been treated with ammonia gas to release the peptides from the membrane. Peptides were then dissolved overnight in distilled water and subsequently evaluated for their biological activities, as described below.
The antimicrobial activity of the synthesized peptides was evaluated against an engineered luminescent P. aeruginosa H1001 (fliC::luxCDABE) strain in 96-well microplates. Aqueous solutions of peptides released from the cellulose spots were diluted twofold in BM2 medium [62 mM potassium phosphate buffer pH 7; 2 mM MgSO4; 10 μM FeSO4; 0.4% (wt/vol) glucose] down the eight wells of a 96-well plate, achieving a final volume of 25 μL in each well. Subsequently, 50 μL of overnight culture of P. aeruginosa H1001 (fliC::luxCDABE) were subcultured in 5 mL of fresh LB media and grown until they reached an OD600 of 0.4. This growing bacteria culture was then diluted 4:100 (v/v) into fresh BM2 media and 25 μL of this diluted bacterial culture was transferred to the microplate wells containing 25 μL of peptide solution. The final peptide concentrations tested ranged from 200 to 3 μg mL^−1. The plates were incubated for 4 h at 37 °C with constant shaking at 50 rpm. Luminescence was measured on a Tecan […]luor Plus Microplate Reader (Tecan US, Morrisville, NC). The antimicrobial activity was evaluated by the ability of the peptides to reduce the luminescence of P. aeruginosa-lux strain compared to untreated cells. The AMP magainin 2 and the carbapenem meropenem were used as positive controls and distilled water was used as a negative control.

K. pneumoniae 1825971 = assay: Antibiofilm assay; format: cell-based, Klebsiella pneumoniae
Description: as §1

Q: How did the antibiofilm activity [1] turn out when `CC[C@H](C)[C@H](NC(=O)[C@H](CCCNC(=N)N)NC(=O)[C@H](Cc1ccc(O)cc1)NC(=O)CNC(=O)[C@H](Cc1ccc(O)cc1)NC(=O)[C@H](CCCNC(=N)N)NC(=O)[C@H](CC(C)C)NC(=O)[C@H](C)NC(=O)[C@H](CCC(N)=O)NC(=O)[C@H](CCC(=O)O)NC(=O)[C@@H](NC(=O)[C@H](CCC(N)=O)NC(=O)[C@H](CCCNC(=N)N)NC(=O)[C@H](CCSC)NC(=O)[C@H](Cc1ccc(O)cc1)NC(=O)[C@H](CCC(N)=O)NC(=O)[C@@H](N)CCCNC(=N)N)[C@@H](C)CC)C(=O)N[C@@H](CO)C(=O)N[C@@H](CCCNC(=N)N)C(=O)N[C@@H](CCCNC(=N)N)C(N)=O` [Guavanin 2] (H-RQYMRQIEQALRYGYRISRR-NH2) was run?
A: The antibiofilm activity was “able to reduce C. albicans biofilms”.

Q: What about the “concentration from which biofilm formation is inhibited (p<0.05)” value ([1]; crystal violet, Student's t-test, three replicates) of the same compound?
A: Its value is 32 µg/mL.

Q: And the “concentration from which planktonic cells are affected (p<0.05)” value ([1]; planktonic cells not eliminated, Student's t-test, three replicates)?
A: Its value is 16 µg/mL.

Q: And the “Active concentration (MIC)” value [2]?
A: Its value is at least 50 µM.

Q: What about the “reduction in bacterial counts” value ([3]; 6.25 μg mL−1 (lowest dose) applied to infected area 24 h after infection, after 4 days) of the same compound?
A: The value was 3 log.

Q: What about the “effect on CFU counts / bacterial load (two-way ANOVA)” value ([3]; doses 6.25, 25 and 100 µg mL−1, 4 days post-infection, two experiments, four mice per group) of the same compound?
A: Its value is “significantly reduced CFU counts”.

Q: What about the “Active concentration (MIC)” value [4] of the same compound?
A: Its value is 6.25 µM.

Q: And the “Active concentration (MIC)” value [5]?
A: Its value is 100 µM.

Q: What about the “SYTOX Green influx (membrane permeabilization)” value (E. coli ATCC 25922) of the same compound?
A: Its value is “only a slow and very small amount of dye influx”.

Q: What about the MIC [6] of the same compound?
A: Its MIC is 6.25 µg/mL (≈ 2.36 µM).

Q: What about the antibiofilm activity (K. pneumoniae 1825971) of the same compound?
A: Its antibiofilm activity is “only able to reduce C. albicans biofilms”.

From publication PMC5902452, “In silico optimization of a guava antimicrobial peptide enables combinatorial exploration for peptide design” (Nature Communications, 2018)
